ChEMBL document CHEMBL3091398, “Anthranilic acid-based Thumb Pocket 2 HCV NS5B polymerase inhibitors with sub-micromolar potency in the cell-based replicon assay” (Bioorg Med Chem Lett, 2013)

Assays:
Hepatitis C virus = test: Antiviral activity against HCV genotype 1b by cell-based luciferase reporter gene assay; format: functional, organism-based, Hepacivirus hominis
[1] = Inhibition of HCV genotype 1b NS5B delta21 polymerase; design: species or system Hepatitis C virus subtype 1b
[2] = Dissociation constant, pKa of the compound; format: physicochemical
[3] = Half life in rat liver microsomes at 2 uM; format: ADME
[4] = Permeability across apical to basolateral side in human Caco2 cells; format: ADME, cell-based; settings: Caco-2, read-out: permeability
[5] = Solubility of the compound at pH 2 after 24 hrs by shake-flask method; format: physicochemical; settings: buffer, pH 2, 24 h
[6] = Lipophilicity, log D of the compound at pH 7.4; format: physicochemical; settings: buffer
[7] = Half life in human liver microsomes at 2 uM; format: ADME

Question: Which EC50 (Hepatitis C virus) does the source give for `CC(=O)Nc1ccc(Oc2ccc(NS(=O)(=O)c3ccc(C)cc3)c(C(=O)O)c2)cc1` here?
Answer: 30000 nM

Question: And the IC50 [1]?
Answer: 290 nM

Question: With `O=C(O)c1cccc(Oc2ccc(C(=O)O)c(NS(=O)(=O)c3ccc(Br)s3)c2)c1` as the molecule, how does the IC50 [1] read?
Answer: 1400 nM

Question: What does the source list for `CC(C)N(c1ccc(Oc2ccccc2C2CC2)cc1C(=O)O)C(=O)[C@H]1CC[C@H](C)CC1`?
Answer: EC50 (Hepatitis C virus): 4300 nM; IC50 [1]: 330 nM

Question: Which EC50 (Hepatitis C virus) does the source give for `Cc1ccc(S(=O)(=O)Nc2ccc(Oc3ccc(C(=O)O)cc3)cc2C(=O)O)cc1` here?
Answer: > 30000 nM

Question: What about the IC50 [1] of the same molecule?
Answer: 85 nM

Question: For `Cc1ccc(S(=O)(=O)Nc2ccc(Oc3cccc(C)c3)cc2C(=O)O)cc1`, which EC50 (Hepatitis C virus) is on record?
Answer: > 30000 nM

Question: And the IC50 [1]?
Answer: 470 nM

Question: With `CC(C)N(c1ccc(OC2CCCC2)cc1C(=O)O)C(=O)[C@H]1CC[C@H](C)CC1` as the molecule, how does the EC50 (Hepatitis C virus) read?
Answer: 1000 nM

Question: And the IC50 [1]?
Answer: 460 nM

Question: Which EC50 (Hepatitis C virus) does the source give for `CC(C)N(c1ccc(Oc2ccccc2OC(F)(F)F)cc1C(=O)O)C(=O)[C@H]1CC[C@H](C)CC1` here?
Answer: 2800 nM

Question: What about the IC50 [1] of the same molecule?
Answer: 740 nM

Question: Which IC50 [1] does the source give for `Cc1ccc(Oc2ccc(C(=O)O)c(NS(=O)(=O)c3ccc(Br)s3)c2)cc1` here?
Answer: 1900 nM

Question: Which results are given for `Cc1ccc(S(=O)(=O)Nc2ccc(Oc3ccccc3C)cc2C(=O)O)cc1`?
Answer: EC50 (Hepatitis C virus): > 30000 nM; IC50 [1]: 530 nM

Question: With `O=C(O)c1ccc(Oc2ccccc2)cc1NS(=O)(=O)c1ccc(Br)s1` as the molecule, how does the EC50 (Hepatitis C virus) read?
Answer: > 25000 nM

Question: And the IC50 [1]?
Answer: 610 nM

Question: Which results are given for `O=C(O)c1cc(Oc2ccccc2)ccc1NS(=O)(=O)c1ccc(Br)cc1F`?
Answer: EC50 (Hepatitis C virus): > 30000 nM; IC50 [1]: 340 nM

Question: For `CC[C@H]1CC[C@H](C(=O)N(c2ccc(Oc3ccccc3)cc2C(=O)O)C(C)C)CC1`, which EC50 (Hepatitis C virus) is on record?
Answer: 25000 nM

Question: And the IC50 [1]?
Answer: 1300 nM

Question: Which results are given for `Cc1ccc(S(=O)(=O)Nc2ccc(Oc3ccccc3OC(F)(F)F)cc2C(=O)O)cc1`?
Answer: EC50 (Hepatitis C virus): 7000 nM; IC50 [1]: 370 nM

Question: Which EC50 (Hepatitis C virus) does the source give for `CC(C)N(c1ccc(Oc2ccccc2)cc1C(=O)O)C(=O)[C@H]1CC[C@H](C)CC1` here?
Answer: 5000 nM

Question: What about the IC50 [1] of the same molecule?
Answer: 670 nM

Question: What does the source list for `Cc1ccc(S(=O)(=O)Nc2ccc(Oc3ccccc3)cc2C(=O)O)cc1`?
Answer: EC50 (Hepatitis C virus): > 30000 nM; IC50 [1]: 220 nM

Question: Which results are given for `CC(C)N(c1ccc(Oc2ccccc2)cc1C(=O)O)C(=O)[C@H]1CC[C@H](C(F)(F)F)CC1`?
Answer: EC50 (Hepatitis C virus): 16000 nM; IC50 [1]: 2000 nM

Question: With `O=C(O)c1ccc(Oc2ccc(C(=O)O)c(NS(=O)(=O)c3ccc(Br)s3)c2)cc1` as the molecule, how does the IC50 [1] read?
Answer: 2200 nM

Question: For `Cc1cccc(Oc2ccc(C(=O)O)c(NS(=O)(=O)c3ccc(Br)s3)c2)c1`, which IC50 [1] is on record?
Answer: 1100 nM

Question: Which EC50 (Hepatitis C virus) does the source give for `CC(C)N(c1cc(OC2CCCC2)ccc1C(=O)O)C(=O)[C@H]1CC[C@H](C)CC1` here?
Answer: > 50000 nM

Question: What about the IC50 [1] of the same molecule?
Answer: > 40000 nM

Question: Which results are given for `Cc1ccc(S(=O)(=O)Nc2ccc(OC3CCCC3)cc2C(=O)O)cc1`?
Answer: EC50 (Hepatitis C virus): 8600 nM; IC50 [1]: 210 nM

Question: For `CC(C)N(c1ccc(Oc2ccccc2C(F)F)cc1C(=O)O)C(=O)[C@H]1CC[C@H](C)CC1`, which EC50 (Hepatitis C virus) is on record?
Answer: 1100 nM

Question: And the IC50 [1]?
Answer: 200 nM

Question: What does the source list for `CC(C)N(c1ccc(Oc2cccc(C(F)(F)F)c2)cc1C(=O)O)C(=O)[C@H]1CC[C@H](C)CC1`?
Answer: EC50 (Hepatitis C virus): 6300 nM; IC50 [1]: 470 nM

Question: For `CC(C)N(c1ccc(Oc2ccccc2C(F)(F)F)cc1C(=O)O)C(=O)[C@H]1CC[C@H](C)CC1`, which pKa [2] is on record?
Answer: 5.5

Question: And the half-life at 2 µM [3]?
Answer: 1.3 h

Question: And the Papp A→B [4]?
Answer: 15 ×10⁻⁶ cm/s

Question: And the solubility [5]?
Answer: < 0.1 µg/mL

Question: What about the logD [6] of the same molecule?
Answer: 2.9

Question: And the IC50 [1]?
Answer: 190 nM

Question: Which results are given for `CC(C)N(c1ccc(Oc2ccncc2C(F)(F)F)cc1C(=O)O)C(=O)[C@H]1CC[C@H](C)CC1`?
Answer: EC50 (Hepatitis C virus): 170 nM; IC50 [1]: 190 nM

Question: With `Cc1ccccc1Oc1ccc(C(=O)O)c(NS(=O)(=O)c2ccc(Br)s2)c1` as the molecule, how does the IC50 [1] read?
Answer: 1500 nM

Question: Which EC50 (Hepatitis C virus) does the source give for `CC(C)N(c1ccc(Oc2ccccc2Br)cc1C(=O)O)C(=O)[C@H]1CC[C@H](C)CC1` here?
Answer: 4900 nM

Question: What about the IC50 [1] of the same molecule?
Answer: 450 nM

Question: With `CC(C)N(c1cc(Oc2ccccc2C(F)(F)F)ccc1C(=O)O)C(=O)[C@H]1CC[C@H](C)CC1` as the molecule, how does the EC50 (Hepatitis C virus) read?
Answer: 4500 nM

Question: And the IC50 [1]?
Answer: 1300 nM

Question: With `CC[C@H]1CC[C@H](C(=O)N(c2cc(Oc3ccccc3)ccc2C(=O)O)C(C)C)CC1` as the molecule, how does the EC50 (Hepatitis C virus) read?
Answer: > 40000 nM

Question: What about the IC50 [1] of the same molecule?
Answer: 4300 nM

Question: For `CC(C)N(c1cc(Oc2ccccc2)ccc1C(=O)O)C(=O)[C@H]1CC[C@H](C)CC1`, which EC50 (Hepatitis C virus) is on record?
Answer: 11000 nM

Question: And the IC50 [1]?
Answer: 740 nM

Question: Which results are given for `CC(C)N(C(=O)c1ccc(Br)cc1F)c1ccc(Oc2ccccc2)cc1C(=O)O`?
Answer: EC50 (Hepatitis C virus): > 10000 nM; IC50 [1]: 1640 nM

Question: What does the source list for `CC(C)N(c1cc(Oc2ccccc2)ccc1C(=O)O)C(=O)[C@H]1CC[C@H](C(F)(F)F)CC1`?
Answer: EC50 (Hepatitis C virus): 16000 nM; IC50 [1]: 1300 nM

Question: With `O=C(O)c1ccc(Oc2ccccc2C(F)(F)F)cc1NS(=O)(=O)c1ccc(Br)s1` as the molecule, how does the EC50 (Hepatitis C virus) read?
Answer: > 30000 nM

Question: What about the IC50 [1] of the same molecule?
Answer: 3000 nM

Question: Which EC50 (Hepatitis C virus) does the source give for `CC(C)N(C(=O)c1ccc(Br)cc1F)c1cc(Oc2ccccc2)ccc1C(=O)O` here?
Answer: > 10000 nM

Question: What about the IC50 [1] of the same molecule?
Answer: 1400 nM

Question: Which EC50 (Hepatitis C virus) does the source give for `Cc1ccc(Oc2ccc(NS(=O)(=O)c3ccc(C)cc3)c(C(=O)O)c2)cc1` here?
Answer: > 30000 nM

Question: And the IC50 [1]?
Answer: 780 nM

Question: With `O=C(O)c1ccc(Oc2ccccc2)cc1NS(=O)(=O)c1ccc(Br)cc1F` as the molecule, how does the EC50 (Hepatitis C virus) read?
Answer: > 30000 nM

Question: And the IC50 [1]?
Answer: 310 nM

Question: For `CC(C)N(c1ccc(Oc2ccccc2C(C)(F)F)cc1C(=O)O)C(=O)[C@H]1CC[C@H](C)CC1`, which EC50 (Hepatitis C virus) is on record?
Answer: 620 nM

Question: And the IC50 [1]?
Answer: 300 nM

Question: Which half-life at 2 µM [3] does the source give for `CC(C)N(c1ccc(Oc2ncccc2C(F)(F)F)cc1C(=O)O)C(=O)[C@H]1CC[C@H](C)CC1` here?
Answer: 1 h

Question: And the half-life at 2 µM [7]?
Answer: 1.15 h

Question: What about the solubility [5] of the same molecule?
Answer: < 0.1 µg/mL

Question: What about the IC50 [1] of the same molecule?
Answer: 80 nM

Question: With `CC(=O)Nc1ccc(Oc2ccc(C(=O)O)c(NS(=O)(=O)c3ccc(Br)s3)c2)cc1` as the molecule, how does the IC50 [1] read?
Answer: 2900 nM

Question: With `Cc1ccc(S(=O)(=O)Nc2ccc(Oc3ccccc3C(F)(F)F)cc2C(=O)O)cc1` as the molecule, how does the half-life at 2 µM [7] read?
Answer: 0.2 h

Question: And the Papp A→B [4]?
Answer: 3.6 ×10⁻⁶ cm/s

Question: What about the EC50 (Hepatitis C virus) of the same molecule?
Answer: 7300 nM

Question: What about the IC50 [1] of the same molecule?
Answer: 270 nM

Question: For `Cc1ccc(S(=O)(=O)Nc2ccc(Oc3cccc(C(=O)O)c3)cc2C(=O)O)cc1`, which EC50 (Hepatitis C virus) is on record?
Answer: > 30000 nM

Question: What about the IC50 [1] of the same molecule?
Answer: 330 nM

Question: Which EC50 (Hepatitis C virus) does the source give for `Cc1ccc(S(=O)(=O)Nc2cc(Oc3ccccc3)ccc2C(=O)O)cc1` here?
Answer: > 30000 nM

Question: And the IC50 [1]?
Answer: 160 nM
